Ends that are not written are not given here.
Key:
[1] = test system: spleen cells of Ovalbumin-immunized Balb/c mice; assay: Th1/Th2 cytokine profiling assay; assay type: cell-based, mouse; settings: 10 micrograms per ml; Ovalbumin restimulation; 72 hours supernatant
From the text: Results from Th1/Th2 Cytokine assay:

HCMV strain AD169 = assay: HCMV plaque formation assay in MRC-5 cells; settings: for inhibition of HCMV plaque formation as compared to the virus control experiment: 10 micrograms per ml, MRC-5 cells, 7-10 days
HUVEC = assay: Endothelial tube formation assay; assay type: cell-based, human; settings: 10 micrograms per ml, 20 hours, average tubule length
From the text: Positive control was vehicle only. […] Raw data were expressed as average tubule lenghs in pixels±standard deviation.

[2] = test system: hepatitis B virus (HBV) ayw strain; assay: HBV experimental assay system, HepG2-2.2.15, secreted HBV DNA by TaqMan PCR; assay type: cell-based; settings: 10 micrograms per ml, six days, HBV DNA in supernatant

Row | Molecule | antiviral activity of positive control compounds (HIV-1IIIB) | inhibition of HCMV plaque formation as compared to the virus control experiment (HCMV strain AD169) | inhibition of the tube formation of human endothelial cells (HUVEC) | inhibition of HBV replication as compared to the virus control infection [2] [%] | also measured
1 | Cc1cn([C@H]2C[C@H](N=[N+]=[N-])[C@@H](CO)O2)c(=O)[nH]c1=O [AZT] | expected levels of antiviral activity | – | – | – | –
2 | Ala-Gly-Glu-Gly-Leu-Asn-Ser-Gln-Phe-Trp-Ser-Leu-Ala-Ala-Pro-Gln-Arg-Phe-NH2 (AGEGLNSQFWSLAAPQRF-NH2) [Peptide 2] | – | did not inhibit | did not inhibit | 42.6 | IFNγ spleen cells; TH1 response (% of control) [1]: 84.8 % of control; IL-2 spleen cells (% of control) [1]: 0.0 % of control; IL-4 spleen cells; TH2 response (% of control) [1]: 0.0 % of control; IL-5 spleen cells; TH2 response (% of control) [1]: 52.2 % of control; TNF-a spleen cells; TH1 response (% of control) [1]: 92.1 % of control
3 | Asp-Leu-Arg-Val-Asp-Thr-Lys-Ser-Arg-Ala-Ala-Trp-Ala-Arg-Leu-Leu-Gln-Glu-His-Pro-Asn-Ala-Arg-Lys-Tyr-Lys-Gly-Ala-Asn-Lys-Lys-Gly-Leu-Ser-Lys-Gly-Cys-Phe-Gly-Leu-Lys-Leu-Asp-Arg-Ile-Gly-Ser-Met-Ser-Gly-Leu-Gly-Cys-OH (DLRVDTKSRAAWARLLQEHPNARKYKGANKKGLSKGCFGLKLDRIGSMSGLGC-OH; cysteine pairing not given here) [Peptide 1] | – | did not inhibit | 34% | 65.7 | –
4 | CC(C)(C)NC(=O)[C@@H]1CN(Cc2cccnc2)CCN1C[C@@H](O)C[C@@H](Cc1ccccc1)C(=O)N[C@H]1c2ccccc2C[C@H]1O [indinavir] | expected levels of antiviral activity | – | – | – | –
5 | Nc1nc(O)c2ncn(COC(CO)CO)c2n1 [Ganciclovir, reference compound] | – | – | – | – | antiviral activity of positive control compound (HCMV strain AD169; positive control, HCMV AD169 in MRC-5 cells): expected levels of antiviral activity

Reference: patent publication US20100204109A1, “USE OF C-TYPE NATRIURETIC PEPTIDE, ALONE OR IN COMBINATION WITH NEUROPEPTIDE AF, AS A THERAPEUTIC AGENT” (priority 2007, published 2010)
